Results reported in patent US20200045983A1, “PROMOTER FOR LEGUMINOUS PLANT GROWTH” (KAO CORPORATION, priority 2017, published 2020).

Assays:
[1] = tested on: soybean (Glycine max); assay: Effect of soyasaponin Bb on soybean growth, in combination with root nodule bacterium material (Example 2); assay type: in vivo; settings: for foliar age among the three plots / plant height among the three plots / above-ground part fresh weight vs only the root nodule bacterium material / root nodule weight vs only the root nodule bacterium material / number of lateral buds / increase in the number of root nodules vs only the root nodule bacterium material: 1 mL of 20 μM solution, 24 days; for above-ground part fresh weight vs only the root nodule bacterium material: no significant change; for root nodule weight vs only the root nodule bacterium material: no significant difference; for number of lateral buds: rarely seen in non-application plot; for increase in the number of root nodules vs only the root nodule bacterium material: significant only for genistein
Procedure: Each Leonard jar filled with culture soil (Takii water-containing cell culture soil TM-1, Takii & Co., Ltd.) was irrigated with 100 mL of tap water. Then, a root nodule bacterium material (“Dr Mametaro®” (Idemitsu Kosan Co., Ltd.) was distributed at a thickness on the order of 5 mm onto the culture soil in the jar using a spatula. Two seeds of soybean (cultivar “Ryokuheki”, Kaneko Seeds Co., Ltd.) were sown by burying at a depth of approximately 1 cm from the culture soil surface. 1 mL of a solution of 20 μM soyasaponin Bb (soyasaponin I, ChromaDex, Inc.) dissolved in 50 mM TAPS buffer (pH 7.7) was added dropwise onto the culture soil covering the seeds using a micropipette. The soyasaponin Bb concentration in the culture soil was approximately 0.3 ppm. Only 1 mL of 50 mM TAPS buffer as a negative control and 1 mL of 20 μM genistein (Gen) solution as a positive control of root nodule formation promotion were applied in the same way as above (for the root nodule formation-promoting effect of genistein, see: Plant and Soil, 1997, 192: 141-151; and Secretions and Exudates in Biological Systems 27-48, Signaling and Communication in Plants 12, Springer-Verlag Berlin Heidelberg, 2012).
Plant cultivation was performed under the same conditions as in Example 1. 24 days after the sowing, growth indexes (foliar age, plant height, the number of lateral buds, above-ground part fresh weight, underground part fresh weight, the number of root nodules, and root nodule fresh weight) were measured. Each growth index was obtained as to each test plot by determining a mean of two plant individuals in each jar, and subsequently calculating a mean of four jars (n=4). The Tukey-Kramer method was used to test the significant difference among the plots.

[2] = tested on: soybean (Glycine max); assay: Effect of soyasaponin Bb on soybean growth in culture soil (Example 1); assay type: in vivo; settings: approx. 0.3 ppm in culture soil, 24 days after sowing
Procedure: Each Leonard jar (Soil Science and Plant Nutrition, 1983, 29: 97-100) filled with approximately 65 g of culture soil (Takii water-containing cell culture soil TM-1, Takii & Co., Ltd.) was irrigated with 100 mL of tap water. Then, two seeds of soybean (cultivar “Ryokuheki”, Kaneko Seeds Co., Ltd.) were sown by burying at a depth of approximately 1 cm from the culture soil surface. 1 mL of a solution of 20 μM soyasaponin Bb (soyasaponin I, ChromaDex, Inc.) dissolved in 50 mM TAPS buffer (pH 7.7) was added dropwise onto the culture soil covering the seeds using a micropipette. The soyasaponin Bb concentration in the culture soil was approximately 0.3 ppm (ppm by mass; the same holds true for the description below). 50 mM TAPS buffer (pH 7.7) was applied as a control (soyasaponin Bb non-application plot) in the same way as above.
Plant cultivation was performed in a plant growth chamber (LPH-350SP, Nippon Medical & Chemical Instruments Co., Ltd.). The light conditions were set to 16-hour light (light intensity: 130 μmol/m^2/s)/8-hour dark. The temperature was set to 26° C. for light and 20° C. for dark, and the humidity was set to 50%. Water supply was performed appropriately (approximately once per 7 to 10 days) by the addition of tap water in an appropriate amount to the lower part of the jar. 24 days after the sowing, growth indexes (foliar age, plant height, the number of lateral buds, above-ground part fresh weight, and underground part fresh weight) were measured. Each growth index was obtained as to each of the soyasaponin Bb non-application plot (control) and the soyasaponin Bb application plot by determining a mean of two plant individuals in each jar, and subsequently calculating a mean of four jars (n=4). The Student's t test was used to test the significant difference between the soyasaponin Bb application plot and the non-application plot.

[3] = tested on: lettuce (Lactuca sativa); settings: Non Patent Literatures 7 to 10; cited from earlier work
[4] = tested on: soybean (Glycine max); assay: Effect of saponin formulation and iron phosphate in combination on soybean yield (Example 10); assay type: in vivo; settings: 50 mg saponin formulation and/or 0.75 mg iron(III) phosphate tetrahydrate per pot, irrigation, 86 days
Procedure: “Ryokuheki” (Kaneko Seeds Co., Ltd.) was used as soybean seeds. Each Wagner pot of 1/5,000 a was filled with approximately 4 L of culture soil (Takii water-containing cell culture soil, intermedium-acting fertilizer effect type:expanded vermiculite=1:1 (volume ratio)), and three seeds were sown at a depth of approximately 1 cm from the culture soil surface. 50 mg of a saponin formulation (“soybean saponin 80”; AccessOne Co., Ltd.), 0.75 mg of iron(III) phosphate tetrahydrate (Junsei Chemical Co., Ltd.), and a mixture thereof were each suspended in 100 mL of tap water, and the culture soil surface was irrigated with each suspension (“saponin plot”, “iron phosphate plot” and “combination plot”, respectively; both the concentrations of the saponin formulation of the combination plot and the saponin plot in the culture soil were approximately 12.5 ppm and corresponded to approximately 6.1 ppm in terms of the concentration of group B soyasaponin calculated from quantification results (Table 7) in Production Example 1). […] 86 days after the sowing, pods (the pods include grains; the same holds true for the description below) were harvested, and a pod fresh weight per plant (pot) and a pod fresh weight per pod (average weight per pod) were measured (n=7 only for the combination plot, and n=8 for the other plots). […]

O=c1c(-c2ccc(O)cc2)coc2cc(O)cc(O)c12 [genistein, reference compound]
foliar age among the three plots [1]: did not differ significantly | plant height among the three plots [1]: did not differ significantly | above-ground part fresh weight vs only the root nodule bacterium material [1]: tendency toward increase | root nodule weight vs only the root nodule bacterium material [1]: tendency toward increase | number of lateral buds [1]: on average one per individual | increase in the number of root nodules vs only the root nodule bacterium material [1]: approximately 1.7 times

C[C@@H]1O[C@@H](O[C@H]2[C@H](O[C@H]3[C@H](O[C@H]4CC[C@@]5(C)[C@@H](CC[C@]6(C)[C@@H]5CC=C5[C@@H]7CC(C)(C)C[C@@H](O)[C@]7(C)CC[C@]56C)[C@@]4(C)CO)O[C@H](C(=O)O)[C@@H](O)[C@@H]3O)O[C@H](CO)[C@H](O)[C@@H]2O)[C@H](O)[C@H](O)[C@H]1O [soyasaponin Bb]
foliar age vs non-application plot [2]: did not differ significantly | plant height vs non-application plot [2]: did not differ significantly | increase in the number of lateral buds with respect to the non-application plot ([2]; statistically significant): approximately 2.7 times | increase in underground part fresh weight with respect to the non-application plot ([2]; statistically significant): approximately 2.2 times | increase in above-ground part fresh weight with respect to the non-application plot ([2]; tendency, no significant difference): approximately 1.1 times | increase in underground part fresh weight with respect to only the root nodule bacterium material ([1]; 1 mL of 20 μM solution (approx. 0.3 ppm in culture soil), 24 days after sowing, statistically significant): approximately 1.5 times | foliar age among the three plots [1]: did not differ significantly | plant height among the three plots [1]: did not differ significantly | above-ground part fresh weight vs only the root nodule bacterium material [1]: tendency toward increase | root nodule weight vs only the root nodule bacterium material [1]: tendency toward increase | number of lateral buds [1]: on average one per individual | increase in the number of root nodules vs only the root nodule bacterium material [1]: approximately 1.3 times | lettuce radicle elongation [3]: relatively weak or was not seen

O.O.O.O.O=P([O-])([O-])[O-].[Fe+3] [iron phosphate, iron(III) phosphate tetrahydrate]
increase in pod fresh weight per pod with respect to the non-application plot ([4]; significant (5% or less)): approximately 10% | increase in pod fresh weight per plant with respect to the non-application plot ([4]; significant only for combination): approximately 10%

CC1=C(O)C(=O)C[C@H](O[C@@H]2CC(C)(C)C[C@H]3C4=CC[C@@H]5[C@@]6(C)CC[C@H](O[C@@H]7O[C@H](C(=O)O)[C@@H](O)[C@H](O)[C@H]7O[C@@H]7O[C@H](CO)[C@H](O)[C@H](O)[C@H]7O[C@@H]7O[C@@H](C)[C@H](O)[C@@H](O)[C@H]7O)[C@](C)(CO)[C@@H]6CC[C@@]5(C)[C@]4(C)CC[C@@]23C)O1 [soyasaponin βg, reference compound]
lettuce radicle elongation [3]: promoted
